Measured values as given in US11352344B2, “Antagonists of the muscarinic acetylcholine receptor M4” (Vanderbilt University, priority 2017, dated 2022).
pIC50: −log10 of the molar value.

Assays:
Human M4 = molecular target: T1, Human M4 (Homo sapiens, UniProt P08173); experiment: mAChR M4 cell-based functional assay (calcium flux, antagonism of EC80 acetylcholine response); details: for remaining activity at 30 µM: % ACh maximum at 30 μM, human M4, read-out: Emin; for pIC50: M4/Gqi5/CHO-K1 cells, decrease of response to EC80 acetylcholine
T1 construct: expressed in transfected cells; host or cells: CHO-K1 (Chinese hamster ovary) cells, stably co-transfected with Gqi5
T1 sequence (P08173 1-479): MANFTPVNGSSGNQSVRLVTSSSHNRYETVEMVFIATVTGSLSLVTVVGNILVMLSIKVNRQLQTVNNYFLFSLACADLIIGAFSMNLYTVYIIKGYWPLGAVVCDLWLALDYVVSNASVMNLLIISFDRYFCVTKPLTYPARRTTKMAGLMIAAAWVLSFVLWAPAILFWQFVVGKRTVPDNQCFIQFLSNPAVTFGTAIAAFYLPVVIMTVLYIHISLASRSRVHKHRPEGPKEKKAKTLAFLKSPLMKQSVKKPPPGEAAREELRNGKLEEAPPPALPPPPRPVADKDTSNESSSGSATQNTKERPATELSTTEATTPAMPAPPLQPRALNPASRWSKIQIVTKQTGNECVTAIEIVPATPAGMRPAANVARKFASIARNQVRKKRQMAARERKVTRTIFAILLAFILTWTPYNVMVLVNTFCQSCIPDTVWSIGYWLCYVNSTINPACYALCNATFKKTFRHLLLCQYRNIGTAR
Protocol: Human or rat M4 cDNA, along with the chimeric G protein Gqi5, were transfected into Chinese hamster ovary (CHO-K1) cells purchased from the American Type Culture Collection using Lipofectamine2000. M4/Gqi5/CHO cells were grown in Ham's F-12 medium containing 10% heat-inactivated fetal bovine serum (FBS), 20 mM HEPES, 500 μg/mL G418 sulfate, and 200 μg/mL Hygromycin B.
For high throughput measurement of agonist-evoked increases in intracellular calcium, CHO-K1 cells stably expressing muscarinic receptors were plated in growth medium lacking G418 and hygromycin at 15,000 cells/20 μL/well in Greiner 384-well black-walled, tissue culture (TC)-treated, clear-bottom plates (VWR). Cells were incubated overnight at 37° C. and 5% CO2. The next day, cells were washed using an ELX 405 (BioTek) with assay buffer; the final volume was then aspirated to 20 μL. Next, 20 μL of a 2.3 μM stock of Fluo-4/acetoxymethyl ester (Invitrogen, Carlsbad, Calif.), prepared as a 2.3 mM stock in DMSO and mixed in a 1:1 ratio with 10% (w/v) Pluronic F-127 and diluted in assay buffer, was added to the wells and the cell plates were incubated for 50 min at 37° C. and 5% CO2. Dye was removed by washing with the ELX 405 and the final volume was aspirated to 20 μL. Compound master plates were formatted in a 10 point concentration-response curve (CRC) format (1:3 dilutions) in 100% DMSO with a starting concentration of 10 or 1 mM using a BRAVO liquid handler (Agilent). Test compound CRCs were then transferred to daughter plates (240 nL) using the Echo acoustic plate reformatter (Labcyte, Sunnyvale, Calif.) and then diluted into assay buffer (40 μL) to a 2× stock using a Thermo Fisher Combi (Thermo Fisher Scientific, Waltham, Mass.).
Calcium flux was measured using the Functional Drug Screening System (FDSS) 6000 or 7000 (Hamamatsu Corporation, Tokyo, Japan) as an increase in the fluorescent static ratio. Compounds were applied to cells (20 μL, 2×) using the automated system of the FDSS at 2 seconds into the protocol and the data were collected at 1 Hz. At 143 s, 10 μL of an EC20 concentration of the muscarinic receptor agonist acetylcholine was added (5×), followed by the addition of 12 μL of an EC80 concentration of acetylcholine at the 268 s time point (5×). Agonist activity was analyzed as a concentration-dependent increase in calcium mobilization upon compound addition. Positive allosteric modulator activity was analyzed as a concentration-dependent increase in the EC20 acetylcholine response. Antagonist activity was analyzed as a concentration-dependent decrease in the EC80 acetylcholine response; for the purposes of the tables herein, an IC50 (inhibitory concentration 50) was calculated as a concentration-dependent decrease of the response elicited by an EC80 concentration of acetylcholine. Concentration-response curves were generated using a four-parameter logistical equation in XLFit curve fitting software (IDBS, Bridgewater, N.J.) for Excel (Microsoft, Redmond, Wash.) or Prism (GraphPad Software, Inc., San Diego, Calif.) or the Dotmatics software platform (Dotmatics, Bishop's Stortford, UK).
Compounds were synthesized as described above. Activity (IC50 and Emin) was determined in the mAChR M4 cell-based functional assay as described above and the data are shown in Table 5. The compound numbers correspond to the compound numbers used in Examples 1-4 and Tables 1-4.

M4 knockout mice = details: but not the other four mAChR subtypes (M1-3,5); cited from earlier work
mice = experiment: haloperidol-induced catalepsy, a model of parkinsonian motor disability; type: in vivo
Excerpt: Furthermore, haloperidol-induced catalepsy, a model of parkinsonian motor disability, is reduced in M4 knockout mice as compared to wild-type controls. […] The reversal by scopolamine was uncommonly robust and more pronounced than we observe with agents targeting a number of other targets being evaluated for potential antiparkinsonian effects, including metabotropic glutamate (mGlu) receptors mGlu4 or mGlu5, A2A adenosine receptors, and NMDA receptors. […] Taken together with the extensive studies of M4 modulation of basal ganglia and motor function, these studies provide compelling evidence that M4 is the dominant mAChR subtype involved in the antiparkinsonian effects of non-selective mAChR antagonists and provide support for discovery and development of selective M4 antagonists for treatment of neurodegenerative disease such as PD, dystonia, tardive dyskinesia and other movement disorders.

Row | Compound | remaining activity at 30 µM (Human M4) [%] | pIC50 (Human M4) | locomotor-activating effects (M4 knockout mice) | reducing catalepsy induced by haloperidol (mice; M4 KO mice) | reversal of catalepsy induced by haloperidol (mice; WT mice)
1 | Cc1cnn(C)c1-c1ccc(NCC2CCC3CN(CC4CC5C=CC4C5)CC23)nn1 (stereo not drawn) [Compound 21, N-[[2-(5-bicyclo[2.2.1]hept-2-enylmethyl)-3,3a,4,5,6,6a-hexahydro-1H-cyclopenta[c]pyrrol-4-yl]methyl]-6-(2,4-dimethylpyrazol-3-yl)pyridazin-3-amine] | 5.19 | 7.26 | – | – | –
2 | Cc1cccnc1CN1CC2CCC(CNc3ccc(-c4c(C)cnn4C)nn3)C2C1 (stereo not drawn) [Compound 22, 6-(2,4-dimethylpyrazol-3-yl)-N-[[2-[(3-methyl-2-pyridyl)methyl]-3,3a,4,5,6,6a-hexahydro-1H-cyclopenta[c]pyrrol-4-yl]methyl]pyridazin-3-amine] | 10.8 | 5.82 | – | – | –
3 | CN1[C@@H]2C[C@@H](OC(=O)[C@H](CO)c3ccccc3)C[C@H]1[C@@H]1O[C@@H]12 [scopolamine] | – | – | dramatically reduced | ineffective | completely reversed

More lines, main results first:

Row | remaining activity at 30 µM (Human M4) [%] | pIC50 (Human M4) | Compound | locomotor-activating effects (M4 knockout mice) | reducing catalepsy induced by haloperidol (mice; M4 KO mice) | reversal of catalepsy induced by haloperidol (mice; WT mice)
4 | 5.96 | 6.12 | Cc1cnn(C)c1-c1ccc(NCC2CCC3CN(CCc4ccccc4)CC23)nn1 (stereo not drawn) [Compound 23, 6-(2,4-dimethylpyrazol-3-yl)-N-[[2-(2-phenylethyl)-3,3a,4,5,6,6a-hexahydro-1H-cyclopenta[c]pyrrol-4-yl]methyl]pyridazin-3-amine] | – | – | –
5 | 22.6 | < 5.00 | Cc1cnn(C)c1-c1ccc(NCC2CCC3CN(CC4CCCOC4)CC23)nn1 (stereo not drawn) [Compound 24, 6-(2,4-dimethylpyrazol-3-yl)-N-[[2-(tetrahydropyran-3-ylmethyl)-3,3a,4,5,6,6a-hexahydro-1H-cyclopenta[c]pyrrol-4-yl]methyl]pyridazin-3-amine] | – | – | –
6 | 27.8 | < 5.00 | Cc1cnn(C)c1-c1ccc(NCC2CCC3CN(CC4CCOCC4)CC23)nn1 (stereo not drawn) [Compound 25, 6-(2,4-dimethylpyrazol-3-yl)-N-[[2-(tetrahydropyran-4-ylmethyl)-3,3a,4,5,6,6a-hexahydro-1H-cyclopenta[c]pyrrol-4-yl]methyl]pyridazin-3-amine] | – | – | –
7 | 16.1 | < 5.00 | Cc1cnn(C)c1-c1ccc(NCC2CCC3CN(Cc4ccccc4)CC23)nn1 (stereo not drawn) [Compound 26, N-[(2-benzyl-3,3a,4,5,6,6a-hexahydro-1H-cyclopenta[c]pyrrol-4-yl)methyl]-6-(2,4-dimethylpyrazol-3-yl)pyridazin-3-amine] | – | – | –
